This is an account of results in patent publication US20240293364A1, “BIOMARKERS FOR CANCER THERAPY USING MDM2 ANTAGONISTS” (OTSUKA PHARMACEUTICAL CO., LTD., priority 2021, published 2024).

Format in all cases: cell-based
One assay relates to MSI-H cell lines. The assay is described as follows: Proliferation assays on cancer cell lines (CellTiter-Glo), MSI-H cell lines. To be noted: eight MSI-H cell lines from different indications (FIG. 4B). As for the experimental part: Cancer cells were cultured in appropriate medium. […] Each cell line was tested in triplicates.
Assay [1] concerns patient-derived organoids (PDOs). Put plainly: Proliferation assays on patient-derived organoids (PDOs), BRCA1/BRCA2/ATM status. As for the experimental part:
(§1) Organoids were retrieved from the CrownBIO organoid bank and expanded before getting enough quantity according to standard operation procedure. One day before organoids seeding, the needed number of organoids were passaged 1:1 using 50% Matrigel and 50% corresponding culture medium. On Day 0 organoids were seeded and compound added: organoids were collected by adding 20 μl 100× Dispase solution to each well from a 6-well plate, and incubating at 37C for 30 min. After incubation, organoids were collected from all wells and pipetted through a pre-wet 100 μm filter into a 50 ml plastic tube, then filtered the flow through over a pre-wet 20 μm filter, inverted the 20 μm filter and recovered the organoids in a new 50 ml tube, Collect organoids were then resuspended in the corresponding culture media, and counted. Organoids cell suspensions were added to 384-well plate by Multidrop dispenser. 2-4 hours after organoids seeding, compounds were added by Tecan D300e, then plates were placed back into incubator for 5 days' incubation. On day 5, proliferation was assayed by CellTiter-Glo assay. […] The plate was then read (for luminescence) in an Envision plate reader.

For assay [2], the system named is MSI-H colorectal cancer PDOs. Put plainly: Proliferation assays on patient-derived organoids (PDOs), MSI-H colorectal cancer. To be noted: 6 MSI-H colorectal cancer PDOs (FIG. 4C). The procedure:
as §1

A further assay deals with A2780. Put plainly: CellTiter-Glo cell viability, combination matrix with PARP inhibitors (HSA synergy), A2780. As to conditions: A2780, TP53 WT, DDR defective, 72 h. The procedure: The cell line will be treated with test articles alone, matrix combinations with test articles and culture medium as vehicle control.
• 1. Harvest cells during the logarithmic growth period and count cell number. • 2. Adjust cell concentrations to 4.0×10^4cells/mL with respective culture medium. • 3. Add 100 μL cell suspensions to three 96-well plates (plates A, B and C) with the final cell density of 4×10^3 cells/well. 4a. Next Day: For the Plates of TO Reading: • 1) Equilibrate the plate A and its content at RT for approximately 30 min. • 2) Add 50 μL CellTiter-Glo reagent to each well. • 3) Mix content for 5 min on an orbital shaker to induce cell lysis. • 4) Allow the plate to incubate at RT for 20 min to stabilize luminescent signal. • 5) Record luminescence (TO) using EnVision Multi Label Reader. 4b. For the Plates of Test Reading: • 1) Prepare 500× solution of test articles (Top working concentration: 10 μM/100 μM of test articles in media with 3-fold serial dilutions to achieve 9 dose levels. • 2) Prepare 10× reference control solutions (Top working concentration: 100 μM in media with 3.16-fold serial dilutions. • 3) Dispense 500× drug solutions in each well (triplicate for each drug concentration) of the plate B using digital dispenser. […] Record luminescence (T3) using EnVision Multi Label Reader. […]

Another assay has as its system DDR signalling pathway. Put plainly: Western blotting of DDR signalling in ATM mutant cell lines. To be noted: ATM mutant cell lines (FIG. 2E). The procedure: The cell lysates were then analysed by Western blotting. […] After washing, blots were incubated for 1 hour with infrared dye labelled anti-rabbit IR800 or anti-goat IR800 secondary antibodies at a dilution of 1: 10,000 in Odyssey blocking buffer (LiCor Biosciences, Lincoln, USA).
(Immunoblotting shows a protein as a band on a membrane.)

`CC[C@@](O)(c1cc(F)c2c(c1)C(=O)N([C@H](c1ccc(Cl)cc1)[C@H](C)C(=O)O)[C@@]2(OC)c1ccc(Cl)cc1)C1CCOCC1` [Example 124, (2S,3S)-3-(4-chlorophenyl)-3-[(1R)-1-(4-chlorophenyl)-7-fluoro-5-[(1S)-1-hydroxy-1-(oxan-4-yl)propyl]-1-methoxy-3-oxo-2,3-dihydro-1H-isoindol-2-yl]-2-methylpropanoic acid]: the “sensitivity as measured by reduction in cell proliferation” value was “showed sensitivity” in the assay with MSI-H cell lines; “showed sensitivity” in assay [1] (4 PDOs with alterations in either ATM, BRCA1 and/or BRCA2 (FIG. 2F-G)); “resistant” in assay [1] (4 additional PDOs with no alterations in ATM, BRCA1 and/or BRCA2); “showed sensitivity” in assay [2]. Moreover, the “HSA_Average <−5 Antagonism >+5 Synergy” value in the assay with A2780 (Compound 1 in combination with Olaparib) worked out at 6.2; in the assay with A2780 (Compound 1 in combination with Talazoparib) it was 12.3. In addition, the “modulation of the DDR signalling pathway (western blot)” value in the assay on DDR signalling pathway is on record as “clear modulation of the DDR signalling pathway”.
